Assays:
[1] = tested on: Tyrosine--tRNA ligase (Staphylococcus aureus); assay: Inhibitory activity (3 uM) against Staphylococcus aureus tyrosyl tRNA synthetase (YRS) using aminoacylation assay; No inhibition
[2] = molecular target: Tyrosine--tRNA ligase (Staphylococcus aureus); assay: Inhibitory activity against Staphylococcus aureus tyrosyl tRNA synthetase (YRS) using aminoacylation assay

IC50 [1]	IC50 [2]	Compound
Not Active		N[C@@H](Cc1ccc(O)cc1)C(=O)N[C@@H](C(=O)O)[C@H]1OC[C@@H](O)[C@@H](O)[C@@H]1O
	1.2 nM	N[C@@H](Cc1ccc(O)cc1)C(=O)N[C@H](C(=O)O)[C@H]1[C@H](O)[C@@H](O)[C@@H](O)CN1O
Not Active		N[C@@H](Cc1ccc(O)cc1)C(=O)N[C@H](C(=O)O)[C@H]1OC[C@@H](O)[C@@H](O)[C@@H]1O

Source: ChEMBL document CHEMBL1134224, “Synthetic analogues of SB-219383. Novel C-glycosyl peptides as inhibitors of tyrosyl tRNA synthetase” (Bioorg Med Chem Lett, 2001)
